# System: cortical spreading depression (CSD) in rats
# Experiment: KCl-induced cortical spreading depression (CSD) animal model of migraine; cerebral blood flow and DC potential measurement
# Format: in vivo, Wistar rats
# Conditions: for number of DC-potential events: KCl-induced CSD (FIG. 3)
# Protocol: All animal experiments were conducted in accordance with the National Institutes of Health (NIH) guidelines for the protection and use of laboratory animals and were approved by the State National Animal Experiment Board of Finland. A total of 48 adult male Wistar rats weighing 250 to 350 g were purchased from Charles River (Germany) and used in this experiment. The animals were raised at ambient temperature (22±1° C.) under an environment in which food and water could be consumed arbitrarily and lighting was controlled (illuminated from 7 am to 8 pm). The animals were divided into the following four groups: • Twelve rats as a negative control group which were intraperitoneally administered 30% PEG400 (5 ml/kg) only, the vehicle of administration, once a day for three weeks • Twelve rats which were intraperitoneally administered the test compound at a dose of 10 mg/kg once a day for three weeks • Twelve rats which were intraperitoneally administered the test compound at a dose of 30 mg/kg once a day for three weeks • Twelve rats as a positive control which were intraperitoneally administered Topiramate at a dose of 80 mg/kg once a day for three weeks
# On the last day of the three weeks of administration of the compound and the vehicle (30% PEG 400), the rats were anesthetized with 5% isoflurane (70% N2O and 30% O2 included, dose rate of 300 ml/min) and then were fixed to a stereotactic frame to perform the following surgery. During surgery, the concentration of anesthetic was reduced to 1 to 1.5%, and the rectal temperature was maintained at 37.0±1.0° C. using the homeothermic blanket system.
# The skin of the rat head was incised and tilted to both sides, and the right hemisphere of the open skull was drilled using a drill to make three holes, the positions of which are as follows and are indicated by “mm” distance from the bregma; (1) in the occipital cortex, 4.5 at the rear and 2.0 at the lateral; (2) in the parietal cortex, 0.5 at the rear and 2.0 at the lateral; (3) in the frontal cortex, 2 at the front and 2 at the lateral. A laser-Doppler flow probe (Oxyflow, Oxford Optronics, UK) for monitoring the cerebral blood flow (CBF) and an invasive Ag/AgCl electrode for measuring the direct current (DC) potential change were placed on the uninjured dura of the holes drilled in the parietal and frontal cortex and within the cortex, respectively.
# The laser-Doppler flow probes were placed in areas with no large pial and dural blood vessels to minimize the interference of the large vessels to the signal. For the measurement of the DC potential difference, a reference electrode was fixed to the neck. The dura on the occipital cortex was carefully removed and care was taken to minimize bleeding. After surgery, the cortical area was restored by washing with saline for 15 minutes. Sphere-shaped (2 mm diameter) cotton wool was wetted with 1 M KCl solution and placed on the pia, and 5 μl of KCl solution was added thereto every 15 minutes to prevent drying. The occurrence of KCl-induced cortical spreading depression (CSD) was measured for 2 hours.
# Cerebral blood flow (CBF) and DC potential were continuously monitored starting 5 minutes before KCl treatment. The last drug administration took place 30 minutes before the KCl solution treatment. The parameters analyzed were (1) the number of events of DC potential, the duration of the event, the magnitude of amplitude, and (2) the number of events of cerebral blood flow change and the size of the magnitude of change. […] Statistical analysis was performed using unpaired t-test on StatsDirect statistical software.
smiles,measurement,setting,value
"CC1(C)O[C@@H]2[C@@H](CO[C@@]3(COS(N)(=O)=O)OC(C)(C)O[C@@H]23)O1 [Topiramate, reference compound]",number of events of increased cerebral blood flow (CBF),"80 mg/kg i.p. once a day for three weeks, positive control, KCl-induced CSD (FIG. 1)",reduction effect
same,number of DC-potential events,"80 mg/kg i.p. once a day for three weeks, positive control",effect shown
NC(=O)O[C@@H](Cn1ncnn1)c1ccccc1Cl [test compound],number of DC-potential events,"30 mg/kg i.p. once a day for three weeks, compared to vehicle treated group",significantly reduced
same,number of events of increased cerebral blood flow (CBF),"30 mg/kg i.p. once a day for three weeks, compared to vehicle treated group, KCl-induced CSD measured for 2 hours (FIG. 1)",significantly reduced
same,degree of cerebral blood flow increase,"i.p. once a day for three weeks, compared to vehicle, KCl-induced CSD (FIG. 2)",no significant effect
same,magnitude of amplitude of the DC-potential event,"i.p. once a day for three weeks, compared to vehicle, KCl-induced CSD (FIG. 4)",no significant effect
same,duration of the DC-potential event,"i.p. once a day for three weeks, compared to vehicle, KCl-induced CSD (FIG. 5)",no significant effect

# Source: US10456376B2, “Use of carbamate compound in order to preventatively treat headaches” (SK BIOPHARMACEUTICALS CO., LTD., priority 2016, dated 2019)
